According to PubChem BioAssay (NCI):
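Five compound concentrations were applied to cells in 96-well plates for 48 hours; endpoints were derived by simple linear interpolation of the resulting dose-response curve. At the TGI there is no net growth.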

Experiments:
Test in all cases: DTP human tumour cell line panel, 48 h
[1] = tested on: TK-10 renal
[2] = tested on: HOP-92 NSCLC
[3] = tested on: SK-OV-3 ovarian
[4] = tested on: T-47D breast
[5] = tested on: OVCAR-4 ovarian
[6] = tested on: NCI-H522 lung
[7] = tested on: SR leukemia
[8] = tested on: SK-MEL-5 melanoma
[9] = tested on: BT-549 breast
[10] = tested on: SF-268 CNS
[11] = tested on: UACC-257 melanoma
[12] = tested on: MALME-3M melanoma
[13] = tested on: SF-295 CNS
[14] = tested on: K-562 leukemia
[15] = tested on: HL-60(TB) leukemia
[16] = tested on: IGROV1 ovarian
[17] = tested on: NCI-H226 lung
[18] = tested on: HCT-15 colon
[19] = tested on: A498 renal
[20] = tested on: RXF 393 renal
[21] = tested on: U251 CNS
[22] = tested on: PC-3 prostate
[23] = tested on: LOX IMVI melanoma
[24] = tested on: CAKI-1 renal
[25] = tested on: SNB-19 CNS
[26] = tested on: SNB-75 CNS
[27] = tested on: DU-145 prostate
[28] = tested on: NCI-H460 lung
[29] = tested on: UO-31 renal
[30] = tested on: HCT-116 colon
[31] = tested on: EKVX NSCLC
[32] = tested on: MDA-N
[33] = tested on: OVCAR-8 ovarian
[34] = tested on: SN12C renal
[35] = tested on: RPMI-8226 leukemia
[36] = tested on: 786-0 renal
[37] = tested on: HOP-62 NSCLC
[38] = tested on: OVCAR-5 ovarian
[39] = tested on: ACHN renal
[40] = tested on: SW-620 colon
[41] = tested on: CCRF-CEM leukemia
[42] = tested on: NCI/ADR-RES ovarian
[43] = tested on: OVCAR-3 ovarian
[44] = tested on: COLO 205 colon
[45] = tested on: MOLT-4 leukemia
[46] = tested on: MDA-MB-231 breast
[47] = tested on: UACC-62 melanoma
[48] = tested on: SK-MEL-28 melanoma
[49] = tested on: MDA-MB-435
[50] = tested on: SK-MEL-2 melanoma
[51] = tested on: KM12 colon
[52] = tested on: MCF7 breast
[53] = tested on: HS 578T breast
[54] = tested on: A549 NSCLC
[55] = tested on: NCI-H23 lung
[56] = tested on: SF-539 CNS
[57] = tested on: HT29 colon
[58] = tested on: M14 melanoma

Measured: TGI

O=C1c2ccccc2-c2ccc(NC(=O)C3CCCCC3C(=O)O)cc21 (stereo not drawn)
> 100 µM: [1] | [2] | [3] | [4] | [5] | [6] | [7] | [8] | [9] | [10] | [11] | [12] | [13] | [14] | [15] | [16] | [17] | [18] | [19] | [20] | [21] | [22] | [23] | [24] | [25] | [26] | [27] | [28] | [29] | [30] | [31] | [32] | [33] | [34] | [35] | [36] | [37] | [38] | [39] | [40] | [41] | [42] | [43] | [44] | [45] | [46] | [47] | [48] | [49] | [50] | [51] | [52] | [53] | [54] | [55] | [56] | [57] | [58]
